From US6767891B2, “Peptides with wound healing activity” (priority 2000, dated 2004)
Where no end group is shown, it is not given here.

Experiments:
[1] = system: normal human vascular endothelial cells (NHVEC); experiment: Boyden chamber migration assay; type: cell-based; conditions: for cell migration over migration in the presence of media alone / migration response compared to positive controls VEGF, PDGF, FGF: 100 ng/ml; for concentration of maximal effect on migration: dose response
Description: The effects of TB4 and TA1 on endothelial cell migration were determined. To investigate the possibility that these peptides effect the migration of normal human vascular endothelial cells (NHVEC) in vitro, a Boyden chamber migration assay was performed.
In the experiments of Table 1 and FIG. 1, normal human […] endothelial cells are used at 5×10^4 cells per well. The wells are coated with 100 μg/ml […] Type IV.

endothelial cells = experiment: MTT (tetrazolium) endothelial cell proliferation assay; type: cell-based; conditions: 10 ng/ml; 4 hours and 24 hours
Description: The effects of TB4 and TA1 on endothelial cell proliferation were determined using a MTT (tetrazolium) assay. The results are shown in FIG. 2 for 4 hours and 24 hours and for three concentrations of these peptides, 10 ng/ml, 100 ng/ml, and 1000 ng/ml. […] At a concentration of 10 ng/ml, TB4 and TA1 maximally stimulated cell proliferation approximately 2-fold and 3-fold over that of the control, respectively.

NHVEC = experiment: scratch wound closure assay; type: cell-based, human; conditions: 10 ng/ml, scratched confluent monolayer
Description: To examine the effects of TB4 and TA1 (10 ng/ml) on NHVEC migration, a scratch would closure assay was used.

[2] = system: healed wound erythema, melanin pigmentation; experiment: Clinical effects of TB4 in vivo (erythema, pigmentation)
Description: There was not post-inflammatory erythema and hyperpigmentation. Frequently, the skin color was normal and not the expected deep red-purple with brown coloration that would take months to resolve on the leg.
Another effect seen is the reduction of melanin pigmentation on the areas of treatment with TB4.

venous stasis ulceration = experiment: Clinical course of Patient 1, shin ulcer; type: in vivo, human
Description: The injury started with a bruise on the left shin, but approximately seven weeks later the area started to get erythematous. The patient was sent by the general internist to the local hospital wound healing center, where the wound was debrided and Silvadene cream was used. However, the patient was not progressing well and grafting was considered. […] The underlying problem was venous stasis with the development of ulceration secondary to minor trauma. The ulcer was about 3.0 cm by 1.0 cm in size with a 1-cm rim of mild erythema. […] The patient was given a preparation containing TA1 to be used twice daily to the small 4 mm area.
The treatment with TA1 was continued for another week twice daily.
At this point, treatment was changed to a preparation containing TB4 to be applied twice daily to the entire ulcer.
After the entire ulcer had been treated for seven days with TB4 twice daily, it was noted that the size of the ulcer was starting to reduce. The wound center physician was concerned about infection (cellulitis around the ulcer). The patient was placed on oral antibiotics for 10 days. However, when the surrounding erythema was palpated, there was no tenderness. The wound appeared to be repairing and increasing the vascular flow to the ulcer base and surrounding skin. The patient felt that after treating the entire for seven days they improved by 40%. The patient was given more preparation containing TB4 for the next week. The internist felt that the patient should not undergo surgery for grafting due to cardiac problems in view of the improvement in the wound.

[3] = system: ulcerations of fingers secondary to burns, diabetes mellitus; experiment: Clinical course of Patient 2, finger ulcerations; type: in vivo, human
Description: The glucose levels of the patient were not kept under control. The patient developed heat burns with blistering and erosions on the patient's fingers. The ulcers are cleansed and Silvadene cream is used for wound healing, which usually takes 2-4 weeks. Occasionally, systematic antibiotics are given.
The patient was seen after having burned the distal phalanx of the left middle finger with a hairdryer 10 days before. The patient had taken some leftover Ceftin 250 mg twice daily and has used Silvadene cream twice daily for the 10 days, but the ulcer would not heal. The ulcer was debrided and the patient was given a preparation containing TA5 to use on the ulcer base twice daily. This ulcer was on the lateral thenar side of the left middle finger.
Approximately six weeks later, the patient had developed new ulcerations of the right index finger on the palmar-ventral side (5 days), and two ulcerations on the right middle finger on the distal digit, lateral thenar side (5 days) and the second digit on the dorsal side (2 weeks history). These ulcerations had developed after the patient had handled hot items. Dicloxacillin (500 mg twice daily) was given for 10 days. The patient was given TB4 wound healing preparation to be used twice daily to the ulcerations.

[4] = system: full thickness punch wounds in rat skin; experiment: Wound healing in vivo, full thickness punch wounds
Description: To study the effect of TA1 on wound healing in vivo, full thickness punch wounds were made in rat skin and treated with TA1 topically or by intraperitoneal injection with a seven-day study interval. For topical treatment, 5 μg of TA1 was applied in 50 μl saline on injury date and 48 hours post-injury. For intraperitoneal treatment, 60 μg of TA1 was administered in 300 μl saline on injury date and then every other day.

chronic wounds = experiment: Pilot study in humans with chronic wounds, collagen synthesis; type: in vivo, human; conditions: 20 volunteers, biopsies at baseline and two months, preliminary results
Description: A pilot study of TA1 and TA5 was performed in humans with 20 volunteers with chronic wounds. Skin biopsies were taken at the baseline and at two months, subjected to histological analysis, immunohistological analysis, and objective and subjective observation. Immunohistochemistry endpoints were epidermal differentiation, epidermal proliferation, and markers of inflammation and were assayed by using anti-CD3 monoclonal antibody.

[5] = Isoelectric point of peptide; type: physicochemical
[6] = 10 μg/ml, 5×10^4 cells per well

Substance | Cell Number per HPF, Chamber 1 ([1]; 0.1 μg/ml) [per HPF] | Cell Number per HPF, Chamber 2 ([1]; 0.1 μg/ml) [per HPF] | Cell Number per HPF, Chamber 3 ([1]; 0.1 μg/ml) [per HPF] | Cell Number per HPF, Mean ([1]; 0.1 μg/ml) [per HPF] | cell migration over migration in the presence of media alone [1] | migration response compared to positive controls VEGF, PDGF, FGF [1] | Cell Number per HPF, Chamber 1 ([1]; 0.5 μg/ml) [per HPF] | Cell Number per HPF, Chamber 2 ([1]; 0.5 μg/ml) [per HPF] | Cell Number per HPF, Chamber 3 ([1]; 0.5 μg/ml) [per HPF] | Cell Number per HPF, Mean ([1]; 0.5 μg/ml) [per HPF] | Cell Number per HPF, Chamber 1 ([1]; 1 μg/ml) [per HPF] | Cell Number per HPF, Chamber 2 ([1]; 1 μg/ml) [per HPF] | Cell Number per HPF, Chamber 3 ([1]; 1 μg/ml) [per HPF] | Cell Number per HPF, Mean ([1]; 1 μg/ml) [per HPF] | Cell Number per HPF, Chamber 1 ([1]; 5 μg/ml) [per HPF] | Cell Number per HPF, Chamber 2 ([1]; 5 μg/ml) [per HPF] | Cell Number per HPF, Chamber 3 ([1]; 5 μg/ml) [per HPF] | Cell Number per HPF, Mean ([1]; 5 μg/ml) [per HPF] | Cell Number per HPF, Chamber 2 ([1]; 10 μg/ml) [per HPF] | Cell Number per HPF, Chamber 3 ([1]; 10 μg/ml) [per HPF] | other results
Ac-ANKGQAPGEAMKPSFLKEKKEVVERSKEEEGPAKMNLVIEMPKD (Ac-ANKGQAPGEAMKPSFLKEKKEVVERSKEEEGPAKMNLVIEMPKD) [TB4] | 18 | 12 | 26 | 19 | significantly enhanced cell migration | heightened responses | 33 | 39 | 50 | 41 | 45 | 47 | 63 | 52 | 55 | 65 | 57 | 59 | 77 | 66 | Cell Number per HPF, Mean ([1]; 10 μg/ml): 71 per HPF; Cell Number per HPF, Chamber 1 [1, 6]: 70 per HPF; concentration of maximal effect on migration [1]: 100 ng/mL; maximal stimulation of cell proliferation over that of the control (endothelial cells): approximately 2 fold; migration of cells into the wounded area compared to media alone (NHVEC): significantly increased; clinical intensity of brown melasma, lentigines, post-inflammatory hyperpigmentation and ephelides ([2]; areas of treatment): definite reduction in the clinical intensity; effect on erythema of the healed wound ([2]; e.g. on the shin): reducing the erythema of the healed wound; erythema of poikiloderma vasculare of the neck secondary to chronic sun exposure ([2]; evaluation not continued): erythema was reducing; size of the ulcer (venous stasis ulceration; after another seven days (14 days), peripheral islands of healing): size of the ulcer was the same; improvement felt by the patient (venous stasis ulceration; after treating entire ulcer for seven days): 40%; status of ulcer (venous stasis ulceration; another seven days after FIG. 11): almost completely closed; status of ulcer (venous stasis ulceration; another two weeks, once daily, FIG. 12): no ulceration; ulcers cleared ([3]; another five days (12 days)): approximately 90%; improvement in the ulcerations ([3]; one week, twice daily, dicloxacillin also given): 70-80%
Ac-SDAAVDTSSEITTKDLKEKKEVVEEAEN [TA1] | 38 | 45 | 33 | 39 | significantly enhanced cell migration | heightened responses | 52 | 53 | 57 | 54 | 64 | 69 | 43 | 59 | 35 | 64 | 72 | 57 | 55 | 66 | Cell Number per HPF, Mean ([1]; 10 μg/ml): 57 per HPF; Cell Number per HPF, Chamber 1 [1, 6]: 51 per HPF; concentration of maximal effect on migration [1]: 100 ng/mL; maximal stimulation of cell proliferation over that of the control (endothelial cells): ~3 fold; migration of cells into the wounded area compared to media alone (NHVEC): significantly increased; status of ulcer (venous stasis ulceration; after 1 week, twice daily to the small 4 mm area): improvement was noted; deeper 4 mm area of the ulceration (venous stasis ulceration; after 2 weeks, twice daily): now level with the rest of the ulcer; 4-day post-injury findings: capillary ingrowth and collagen deposition ([4]; 4-day post-injury): increased capillary ingrowth and collagen deposition; 4-day post-injury findings: reepithelialization, wound contraction, keratinocyte migration ([4]; 4-day post-injury): accelerated reepithelialization, wound contraction, and keratinocyte migration; decrease in wound width versus normal saline control ([4]; intraperitoneal 60 μg, p 0.0001 four-day, p 0.08 seven-day): 42%±9%; decrease in gap size versus normal saline (NS) control ([4]; intraperitoneal 60 μg, p 0.0007 for four-day and seven-day results): 42%±9%; decrease in wound width versus normal saline (NS) control ([4]; topical 5 μg, p 0.0001 four and seven-day results): 15%; decrease in gap size versus normal saline (NS) control ([4]; topical 5 μg, significant for seven-day results (p 0.04)): 18%±12%; stimulating collagen synthesis compared with tretinoin and vitamin C (chronic wounds): more effective in stimulating collagen synthesis than tretinoin or vitamin C; isoelectric point [5]: 4.1
KKLKKEENPLELKEKLKEKKNPLPSKEEEKASPFDKI -T-E-T-P-D-M-S [TA5] | – | – | – | – | – | – | – | – | – | – | – | – | – | – | – | – | – | – | – | – | new shallow ulceration resolved ([3]; one week, twice daily): approximately 70%; status of ulcer, left middle finger ([3]; one week, twice daily on ulcer base): dramatic improvement of the ulcer base; older, deeper ulceration healing ([3]; two weeks, twice daily): healing more rapidly than previously; stimulating collagen synthesis compared with tretinoin and vitamin C (chronic wounds): more effective in stimulating collagen synthesis than tretinoin or vitamin C
VEGF [reference compound] | – | – | – | – | – | – | – | – | – | – | – | – | – | – | – | – | – | – | – | – | Cell Number per HPF, Chamber 1 ([1]; 10 ng/ml, positive control): 88 per HPF; Cell Number per HPF, Chamber 2 ([1]; 10 ng/ml, positive control): 95 per HPF; Cell Number per HPF, Chamber 3 ([1]; 10 ng/ml, positive control): 97 per HPF; Cell Number per HPF, Mean ([1]; 10 ng/ml, positive control): 93 per HPF
